# Assay results reported in PubChem BioAssay AID1963837 (Molecular Pharmacology Branch, DTP, NCI, 2024).
# System: 843126-344-R-J1-PDC complex spheroid viability
# Experiment: Anticancer human tumor 843126-344-R-J1-PDC patient-derived melanoma cell line growth inhibition [POLQ]
# Settings: curve of first compound; second compound 10 µM
# Method in brief: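 Patient-derived tumour cells were co-cultured with HUVEC and mesenchymal stem cells as multicellular spheroids at 37 °C. They were treated with POLQ inhibitors (novobiocin, ART-558, RP6685) alone or combined with other agents. Top concentrations were at or near clinical Cmax (otherwise 10 microM; SN-38 at 1 microM), decreasing in half-log steps.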
# 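Throughout, for viability, T/C: spheroids exposed to drugs for seven days before readout.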
row,Structure (SMILES),IC50 [µM]
1,C=CCn1c(=O)c2cnc(Nc3ccc(N4CCN(C)CC4)cc3)nc2n1-c1cccc(C(C)(C)O)n1 + Cc1cccc(N(C)C(=O)C2C(O)CCN2c2nc(C)cc(C(F)(F)F)c2C#N)c1,> 1
2,CNCc1ccc(-c2[nH]c3cc(F)cc4c3c2CCNC4=O)cc1 + COC1C(OC(N)=O)C(O)C(Oc2ccc3c(O)c(NC(=O)c4ccc(O)c(CC=C(C)C)c4)c(=O)oc3c2C)OC1(C)C,> 10
3,C=CC(=O)N1CCN(c2nc(=O)n(-c3c(C)ccnc3C(C)C)c3nc(-c4c(O)cccc4F)c(F)cc23)C(C)C1 (configuration not stated) + Cc1cccc(N(C)C(=O)C2C(O)CCN2c2nc(C)cc(C(F)(F)F)c2C#N)c1,> 10
4,CC(C)n1c(=O)n(C)c2cnc3cc(F)c(-c4ccc(OCCCN5CCCCC5)nc4)cc3c21 + Cc1cccc(N(C)C(=O)C2C(O)CCN2c2nc(C)cc(C(F)(F)F)c2C#N)c1,> 10
5,COc1cc2cc(C(=O)CCC(=O)O)sc2cc1OC + Nc1ccc(C#CCN(C(=O)Cc2ncc(C(F)(F)F)cc2C(F)(F)F)c2ccc(F)cc2)nn1,> 10
6,CC1COCCN1c1cc(-c2ccnn2C)c2ccnc(-c3ccn[nH]3)c2n1 (configuration not stated) + Nc1ccc(C#CCN(C(=O)Cc2ncc(C(F)(F)F)cc2C(F)(F)F)c2ccc(F)cc2)nn1,0.51

# Same assay, conditions: second compound 0.0316 µM; first compound 0.00316 µM; stronger effect = lower value
row,Structure (SMILES),"viability, T/C [%]"
1,C=CCn1c(=O)c2cnc(Nc3ccc(N4CCN(C)CC4)cc3)nc2n1-c1cccc(C(C)(C)O)n1 + Cc1cccc(N(C)C(=O)C2C(O)CCN2c2nc(C)cc(C(F)(F)F)c2C#N)c1,108

# Same assay, conditions: second compound 0.0316 µM; first compound 0.01 µM; stronger effect = lower value
row,Structure (SMILES),"viability, T/C [%]"
1,C=CCn1c(=O)c2cnc(Nc3ccc(N4CCN(C)CC4)cc3)nc2n1-c1cccc(C(C)(C)O)n1 + Cc1cccc(N(C)C(=O)C2C(O)CCN2c2nc(C)cc(C(F)(F)F)c2C#N)c1,88.7

# Same assay, conditions: second compound 0.0316 µM; first compound 0.0316 µM; stronger effect = lower value
row,Structure (SMILES),"viability, T/C [%]"
1,CC1COCCN1c1cc(C2(S(C)(=N)=O)CC2)nc(-c2ccnc3[nH]ccc23)n1 (configuration not stated) + Cc1cccc(N(C)C(=O)C2C(O)CCN2c2nc(C)cc(C(F)(F)F)c2C#N)c1,102
2,C=CCn1c(=O)c2cnc(Nc3ccc(N4CCN(C)CC4)cc3)nc2n1-c1cccc(C(C)(C)O)n1 + Cc1cccc(N(C)C(=O)C2C(O)CCN2c2nc(C)cc(C(F)(F)F)c2C#N)c1,95.2
3,CNCc1ccc(-c2[nH]c3cc(F)cc4c3c2CCNC4=O)cc1 + COC1C(OC(N)=O)C(O)C(Oc2ccc3c(O)c(NC(=O)c4ccc(O)c(CC=C(C)C)c4)c(=O)oc3c2C)OC1(C)C,84.8
4,C=CC(=O)N1CCN(c2nc(=O)n(-c3c(C)ccnc3C(C)C)c3nc(-c4c(O)cccc4F)c(F)cc23)C(C)C1 (configuration not stated) + Cc1cccc(N(C)C(=O)C2C(O)CCN2c2nc(C)cc(C(F)(F)F)c2C#N)c1,87.6
5,CC(C)n1c(=O)n(C)c2cnc3cc(F)c(-c4ccc(OCCCN5CCCCC5)nc4)cc3c21 + Cc1cccc(N(C)C(=O)C2C(O)CCN2c2nc(C)cc(C(F)(F)F)c2C#N)c1,100
6,COc1cc2cc(C(=O)CCC(=O)O)sc2cc1OC + Nc1ccc(C#CCN(C(=O)Cc2ncc(C(F)(F)F)cc2C(F)(F)F)c2ccc(F)cc2)nn1,84.1
7,CC1COCCN1c1cc(-c2ccnn2C)c2ccnc(-c3ccn[nH]3)c2n1 (configuration not stated) + Nc1ccc(C#CCN(C(=O)Cc2ncc(C(F)(F)F)cc2C(F)(F)F)c2ccc(F)cc2)nn1,89.6

# Same assay, conditions: second compound 0.0316 µM; first compound 0.1 µM; stronger effect = lower value
row,Structure (SMILES),"viability, T/C [%]"
1,CC1COCCN1c1cc(C2(S(C)(=N)=O)CC2)nc(-c2ccnc3[nH]ccc23)n1 (configuration not stated) + Cc1cccc(N(C)C(=O)C2C(O)CCN2c2nc(C)cc(C(F)(F)F)c2C#N)c1,80.2
2,C=CCn1c(=O)c2cnc(Nc3ccc(N4CCN(C)CC4)cc3)nc2n1-c1cccc(C(C)(C)O)n1 + Cc1cccc(N(C)C(=O)C2C(O)CCN2c2nc(C)cc(C(F)(F)F)c2C#N)c1,111
3,CNCc1ccc(-c2[nH]c3cc(F)cc4c3c2CCNC4=O)cc1 + COC1C(OC(N)=O)C(O)C(Oc2ccc3c(O)c(NC(=O)c4ccc(O)c(CC=C(C)C)c4)c(=O)oc3c2C)OC1(C)C,94
4,C=CC(=O)N1CCN(c2nc(=O)n(-c3c(C)ccnc3C(C)C)c3nc(-c4c(O)cccc4F)c(F)cc23)C(C)C1 (configuration not stated) + Cc1cccc(N(C)C(=O)C2C(O)CCN2c2nc(C)cc(C(F)(F)F)c2C#N)c1,95.2
5,CC(C)n1c(=O)n(C)c2cnc3cc(F)c(-c4ccc(OCCCN5CCCCC5)nc4)cc3c21 + Cc1cccc(N(C)C(=O)C2C(O)CCN2c2nc(C)cc(C(F)(F)F)c2C#N)c1,87.7
6,COc1cc2cc(C(=O)CCC(=O)O)sc2cc1OC + Nc1ccc(C#CCN(C(=O)Cc2ncc(C(F)(F)F)cc2C(F)(F)F)c2ccc(F)cc2)nn1,82.5
7,CC1COCCN1c1cc(-c2ccnn2C)c2ccnc(-c3ccn[nH]3)c2n1 (configuration not stated) + Nc1ccc(C#CCN(C(=O)Cc2ncc(C(F)(F)F)cc2C(F)(F)F)c2ccc(F)cc2)nn1,76.3

# Same assay, conditions: second compound 0.0316 µM; first compound 0.316 µM; stronger effect = lower value
row,Structure (SMILES),"viability, T/C [%]"
1,CC1COCCN1c1cc(C2(S(C)(=N)=O)CC2)nc(-c2ccnc3[nH]ccc23)n1 (configuration not stated) + Cc1cccc(N(C)C(=O)C2C(O)CCN2c2nc(C)cc(C(F)(F)F)c2C#N)c1,74.1
2,C=CCn1c(=O)c2cnc(Nc3ccc(N4CCN(C)CC4)cc3)nc2n1-c1cccc(C(C)(C)O)n1 + Cc1cccc(N(C)C(=O)C2C(O)CCN2c2nc(C)cc(C(F)(F)F)c2C#N)c1,105
3,CNCc1ccc(-c2[nH]c3cc(F)cc4c3c2CCNC4=O)cc1 + COC1C(OC(N)=O)C(O)C(Oc2ccc3c(O)c(NC(=O)c4ccc(O)c(CC=C(C)C)c4)c(=O)oc3c2C)OC1(C)C,98.3
4,C=CC(=O)N1CCN(c2nc(=O)n(-c3c(C)ccnc3C(C)C)c3nc(-c4c(O)cccc4F)c(F)cc23)C(C)C1 (configuration not stated) + Cc1cccc(N(C)C(=O)C2C(O)CCN2c2nc(C)cc(C(F)(F)F)c2C#N)c1,122
5,CC(C)n1c(=O)n(C)c2cnc3cc(F)c(-c4ccc(OCCCN5CCCCC5)nc4)cc3c21 + Cc1cccc(N(C)C(=O)C2C(O)CCN2c2nc(C)cc(C(F)(F)F)c2C#N)c1,97.2
6,COc1cc2cc(C(=O)CCC(=O)O)sc2cc1OC + Nc1ccc(C#CCN(C(=O)Cc2ncc(C(F)(F)F)cc2C(F)(F)F)c2ccc(F)cc2)nn1,81.6
7,CC1COCCN1c1cc(-c2ccnn2C)c2ccnc(-c3ccn[nH]3)c2n1 (configuration not stated) + Nc1ccc(C#CCN(C(=O)Cc2ncc(C(F)(F)F)cc2C(F)(F)F)c2ccc(F)cc2)nn1,65.3

# Same assay, conditions: second compound 0.0316 µM; first compound 1 µM; stronger effect = lower value
row,Structure (SMILES),"viability, T/C [%]"
1,CC1COCCN1c1cc(C2(S(C)(=N)=O)CC2)nc(-c2ccnc3[nH]ccc23)n1 (configuration not stated) + Cc1cccc(N(C)C(=O)C2C(O)CCN2c2nc(C)cc(C(F)(F)F)c2C#N)c1,84.5
2,C=CCn1c(=O)c2cnc(Nc3ccc(N4CCN(C)CC4)cc3)nc2n1-c1cccc(C(C)(C)O)n1 + Cc1cccc(N(C)C(=O)C2C(O)CCN2c2nc(C)cc(C(F)(F)F)c2C#N)c1,81.8
3,CNCc1ccc(-c2[nH]c3cc(F)cc4c3c2CCNC4=O)cc1 + COC1C(OC(N)=O)C(O)C(Oc2ccc3c(O)c(NC(=O)c4ccc(O)c(CC=C(C)C)c4)c(=O)oc3c2C)OC1(C)C,92.3
4,C=CC(=O)N1CCN(c2nc(=O)n(-c3c(C)ccnc3C(C)C)c3nc(-c4c(O)cccc4F)c(F)cc23)C(C)C1 (configuration not stated) + Cc1cccc(N(C)C(=O)C2C(O)CCN2c2nc(C)cc(C(F)(F)F)c2C#N)c1,94.6
5,CC(C)n1c(=O)n(C)c2cnc3cc(F)c(-c4ccc(OCCCN5CCCCC5)nc4)cc3c21 + Cc1cccc(N(C)C(=O)C2C(O)CCN2c2nc(C)cc(C(F)(F)F)c2C#N)c1,78.7
6,COc1cc2cc(C(=O)CCC(=O)O)sc2cc1OC + Nc1ccc(C#CCN(C(=O)Cc2ncc(C(F)(F)F)cc2C(F)(F)F)c2ccc(F)cc2)nn1,99.8
7,CC1COCCN1c1cc(-c2ccnn2C)c2ccnc(-c3ccn[nH]3)c2n1 (configuration not stated) + Nc1ccc(C#CCN(C(=O)Cc2ncc(C(F)(F)F)cc2C(F)(F)F)c2ccc(F)cc2)nn1,48.7

# Same assay, conditions: second compound 0.0316 µM; first compound 3.16 µM; stronger effect = lower value
row,Structure (SMILES),"viability, T/C [%]"
1,CC1COCCN1c1cc(C2(S(C)(=N)=O)CC2)nc(-c2ccnc3[nH]ccc23)n1 (configuration not stated) + Cc1cccc(N(C)C(=O)C2C(O)CCN2c2nc(C)cc(C(F)(F)F)c2C#N)c1,76.2
